Assay results: patent publication US12383628B2 (priority 2016, dated 2025)
Square brackets hold non-standard residues; d marks the D form. Ends that are not written are not given here. Peptide text beside a SMILES is read from it. Phe(3-Br) = N[C@@H](Cc1cccc(Br)c1)C(=O)O; Phe(4-Br) = N[C@@H](Cc1ccc(Br)cc1)C(=O)O; Phe(3-I) = N[C@@H](Cc1cccc(I)c1)C(=O)O; 2Nal = N[C@@H](Cc1ccc2ccccc2c1)C(=O)O; Dmt = Cc1cc(O)cc(C)c1C[C@H](N)C(=O)O; β3hF = N[C@H](CC(=O)O)Cc1ccccc1; Cha = N[C@@H](CC1CCCCC1)C(=O)O; Phe∗ = not defined here; Trp∗ = not defined here

Key:
[1] = Stability and degradability of biogels in human plasma (Example 8); type: in vitro ADME; conditions: 37° C.; for half-life at 14 μM: human, plasma, in solution
Procedure: After centrifugation at 14 000 rpm for 15 minutes, 100 μL supernatant was diluted with 100 μL milliQ water in the injection vial. Injection samples were vortexed for 5 seconds and were analyzed by HPLC. […] Calculations were performed using Microsoft® Office Professional 2010 Excel.

[2] = Peptide gelation (tilted tube / inverted vial test, minimum gelation concentration); type: physicochemical; conditions: for Gelation behaviour: 2% w/v, PBS 10 mM, pH 7.4; for Minimum gelation concentration (w/v % in PBS): '/' = no gel
Procedure: The peptide gelation occurred by dissolving the TFA salt of the hexapeptide (2 mg) in 100 μL of PBS solution (pH 7.4) or physiological saline solution (0.9% NaCl).
Both peptides 2 and 4 (Table 1) gave a transparent gel in the same conditions (PBS 10 mM at pH 7.4 with a minimum gelation concentration of 24 mM; 2% w/v). To evaluate the mechanical properties of these hydrogels in a more quantitative manner, rheological experiments were performed. The viscoelastic properties of the peptide hydrogels were measured by dynamic rheometry at 37° C. This technique allowed to measure the storage modulus G′ (corresponding to the material's stiffness or rigidity), loss modulus G″ (corresponding to the viscous properties of the material) and loss factor tan (o) (ratio of G″ over G′). According to the Winter-Chambon criterion, a material reaches gelation in rheological terms if the phase angle o gets frequency-independent (F. Chambon et al., 1987 and H. Winter et al., 1987).
The peptide gelation occurred by dissolving the TFA salt of the peptide in 100 μL of PBS solution or physiological saline solution (0.9% NaCl) (pH 7.4).
The peptide gelation occurs by dissolving the TFA salt of the hydrogelator (1 or 2 mg) in 100 μL of aqueous media, PBS solution (pH 7.4) or physiological saline solution (0.9% NaCl). After successive vortexing and sonication, the gel is left to rest overnight at room temperature.
The hydrogelation was realized under physiologically relevant conditions, namely via the addition of phosphate-buffered saline (PBS) or sterile physiological saline solution (0.9% NaCl). The needed amount of hydrogelator was weighed in an Eppendorf® and solubilized by the addition of the above solutions. After vortex and sonication steps, the resulting solution was left at room temperature until gelation occurred. The gelation was qualitatively verified by the inverted vial test (if no gravitational flow was visible the gelation was considered successful). It can be noticed that all peptide hydrogelators depicted formed gels in PBS and saline solution at a concentration of 1 to 2% w/v.

| Compound | Minimum gelation concentration (w/v % in PBS) [2] | also measured |
| --- | --- | --- |
| Cc1cc(O)cc(C)c1C[C@H](N)C(=O)N[C@H](CCCCN)C(=O)N[C@@H](Cc1ccccc1)C(=O)N[C@@H](Cc1ccccc1)C(=O)N[C@@H](CCC(N)=O)C(=O)N[C@@H](Cc1ccccc1)C(=O)N[C@@H](CCC(N)=O)C(=O)N[C@@H](Cc1ccccc1)C(=O)N[C@@H](CCCCN)C(N)=O [CM-136, Dmt-OLy:s-Phe-Phe-Gln-Phe*-Gln-Phe*-Lys-NH2] (H-[Dmt][dK]FFQFQFK-NH2) | – | half-life at 14 μM [1]: ~0.183 h |
| Cc1cc(O)cc(C)c1C[C@H](N)C(=O)N[C@H](CCCNC(=N)N)C(=O)N[C@@H](Cc1ccccc1)C(=O)N[C@@H](Cc1ccccc1)C(=O)N[C@@H](CCC(N)=O)C(=O)N[C@H](CC(=O)N[C@@H](Cc1ccccc1)C(=O)N[C@@H](CCC(N)=O)C(=O)N[C@@H](Cc1ccccc1)C(=O)N[C@@H](CCCCN)C(N)=O)Cc1ccccc1 [CM-137, Dmt-OArg-Phe-Phe-Gln-J3;s-homo-Phe-Phe-Gln-Phe*-Lys-NH2] (H-[Dmt][dR]FFQ[β3hF]FQFK-NH2; N-terminus assumed) | – | Extent of degradation ([1]; human plasma): the degradation stops after the cleavage of the first Gin; half-life at 14 μM [1]: ~2.05 h |
| NCCCC[C@H](NC(=O)[C@H](CC1CCCCC1)NC(=O)[C@H](CCC(N)=O)NC(=O)[C@H](CC1CCCCC1)NC(=O)[C@H](CCC(=O)O)NC(=O)[C@@H](N)CC1CCCCC1)C(N)=O [compound 9, H-Cha-Glu-Cha-Gln-Cha-Lys-NH2] (H-[Cha]E[Cha]Q[Cha]K-NH2) | 2 w/v % | Gelation behaviour [2]: formed gels |
| NCCCC[C@H](NC(=O)[C@H](Cc1ccc2ccccc2c1)NC(=O)[C@H](CCC(N)=O)NC(=O)[C@H](Cc1ccc2ccccc2c1)NC(=O)[C@H](CCC(=O)O)NC(=O)[C@@H](N)Cc1ccc2ccccc2c1)C(N)=O [compound 13, H-(2-Nal)-Glu-(2-Nal)-Gln-(2-Nal)-Lys-NH2] (H-[2Nal]E[2Nal]Q[2Nal]K-NH2) | 2 w/v % | – |
| NCCCC[C@H](NC(=O)[C@H](Cc1cccc(Br)c1)NC(=O)[C@H](CCC(N)=O)NC(=O)[C@H](Cc1ccccc1)NC(=O)[C@H](CCC(N)=O)NC(=O)[C@@H](N)Cc1ccccc1)C(N)=O [compound 31, H-Phe-Gln-Phe-Gln-Phe(3Br)-Lys-NH2] (H-FQFQ[Phe(3-Br)]K-NH2) | 1-2 w/v % | – |
| NCCCC[C@H](NC(=O)[C@H](Cc1cccc(Br)c1)NC(=O)[C@H](CCC(N)=O)NC(=O)[C@H](Cc1cccc(Br)c1)NC(=O)[C@H](CCC(N)=O)NC(=O)[C@@H](N)Cc1ccccc1)C(N)=O [compound 32, H-Phe-Gln-Phe(3Br)-Gln-Phe(3Br)-Lys-NH2] (H-FQ[Phe(3-Br)]Q[Phe(3-Br)]K-NH2) | 1-2 w/v % | – |
| NCCCC[C@H](NC(=O)[C@H](Cc1ccccc1)NC(=O)[C@H](CCC(N)=O)NC(=O)[C@H](Cc1cccc(Br)c1)NC(=O)[C@H](CCC(N)=O)NC(=O)[C@@H](N)Cc1ccccc1)C(N)=O [compound 34, H-Phe-Gln-Phe(3Br)-Gln-Phe-Lys-NH2] (H-FQ[Phe(3-Br)]QFK-NH2) | 1-2 w/v % | – |
| NCCCC[C@H](NC(=O)[C@H](Cc1ccc(Br)cc1)NC(=O)[C@H](CCC(N)=O)NC(=O)[C@H](Cc1ccc(Br)cc1)NC(=O)[C@H](CCC(N)=O)NC(=O)[C@@H](N)Cc1ccc(Br)cc1)C(N)=O [compound 35, H-Phe(4Br)-Gln-Phe(4Br)-Gln-Phe(4Br)-Lys-NH2] (H-[Phe(4-Br)]Q[Phe(4-Br)]Q[Phe(4-Br)]K-NH2) | 1-2 w/v % | – |
| NCCCC[C@H](NC(=O)[C@H](Cc1cccc(I)c1)NC(=O)[C@H](CCC(N)=O)NC(=O)[C@H](Cc1ccccc1)NC(=O)[C@H](CCC(N)=O)NC(=O)[C@@H](N)Cc1ccccc1)C(N)=O [compound 36, H-Phe-Gln-Phe-Gln-Phe(3I)-Lys-NH2] (H-FQFQ[Phe(3-I)]K-NH2) | 1-2 w/v % | – |
| NCCCC[C@H](NC(=O)[C@H](Cc1cccc(I)c1)NC(=O)[C@H](CCC(N)=O)NC(=O)[C@H](Cc1cccc(I)c1)NC(=O)[C@H](CCC(N)=O)NC(=O)[C@@H](N)Cc1ccccc1)C(N)=O [compound 37, H-Phe-Gln-Phe(3I)-Gln-Phe(3I)-Lys-NH2] (H-FQ[Phe(3-I)]Q[Phe(3-I)]K-NH2) | 1-2 w/v % | – |
| Ac-Phe-Glu-Phe*-Gln-Phe-Lys-NH2 [peptide 3] | – | Gelation behaviour [2]: macroscopic aggregation |
| H-AEAQAK-NH2 [compound 8, H-Ala-Glu-Ala-Gln-Ala-Lys-NH2] | – | Gelation behaviour [2]: remained in solution |
| H-DLys-DPhe-DAsn-DPhe*-DGlu-DPhe-NH2 (H-[dK][dF][dN]F[dE][dF]-NH2; not fully specified (residue 4)) [compound 22] | 2 w/v % | – |
| H-DLys-DPhe-DGln-DPhe*-DGlu-DPhe-NH2 (H-[dK][dF][dQ]F[dE][dF]-NH2; not fully specified (residue 4)) [compound 19] | 2 w/v % | – |
| H-DLys-DPhe-DGlu-DPhe*-DGlu-DPhe-NH2 (H-[dK][dF][dE]F[dE][dF]-NH2; not fully specified (residue 4)) [compound 23] | 2 w/v % | – |
| H-DPhe-DGlu-DPhe*-DGln-DPhe-DLys-NH2 (H-[dF][dE]F[dQ][dF][dK]-NH2; not fully specified (residue 3)) [compound 17] | 2 w/v % | – |
| H-DPhe-DGlu-DPhe*-DGln-DPhe-DLys-OH (H-[dF][dE]F[dQ][dF][dK]-OH; not fully specified (residue 3)) [compound 25] | 1 w/v % | – |
| H-IEIQIK-NH2 [compound 5, H-Ile-Glu-Ile-Gln-Ile-Lys-NH2] | 2 w/v % | Gelation behaviour [2]: formed gels |
| H-Leu-Glu-Leu-Gln-Leu-Lys-NH2 (H-LELQLK-NH2) [peptide 6] | – | Gelation behaviour [2]: remained in solution |
| H-Lys-Phe-Gln-Phe*-Glu-Phe-OH (H-KFQ[Phe∗]EF-OH; not fully specified; reading uncertain) [compound 26] | 2 w/v % | – |
| H-Phe-Glu-Phe*-Asn-Phe-Lys-NH2 (H-FE[Phe∗]NFK-NH2; not fully specified; reading uncertain) [compound 11] | 1 w/v % | – |
| H-Phe-Glu-Phe*-Asn-Phe-Lys-OH (H-FE[Phe∗]NFK-OH; not fully specified; reading uncertain) [compound 10] | 1 w/v % | – |
| H-Phe-Glu-Phe*-Gln-Trp-Lys-NH2 (H-FE[Phe∗]QWK-NH2; not fully specified; reading uncertain) [compound 15] | 2 w/v % | – |
| H-Phe-Glu-Phe*-Lys-Phe-Ser-NH2 (H-FE[Phe∗]KFS-NH2; not fully specified; reading uncertain) [compound 20] | 1 w/v % | – |
| H-Phe-Glu-Trp*-Gln-Phe-Lys-NH2 (H-FE[Trp∗]QFK-NH2; not fully specified; reading uncertain) [compound 21] | 2 w/v % | – |
| H-Trp-Glu-Phe*-Gln-Phe-Lys-NH2 (H-WE[Phe∗]QFK-NH2; not fully specified; reading uncertain) [compound 14] | 2 w/v % | – |
| H-VEVQVK-NH2 [compound 7, H-Val-Glu-Val-Gln-Val-Lys-NH2] | – | Gelation behaviour [2]: remained in solution |
| SEQ ID NO: 56, modified by the inclusion of an ester as linker: biogel MOJ-02 modified by an ester linker (spacer) between the hydrogelator part and the biological active ingredient (Y[dR]FFQ[β3hF]FQFK-NH2; not fully specified (residue 9); also: ester linker between hydrogelator part and active ingredient, position not given here) | – | Biogel formation [2]: able to form a biogel spontaneously |
